Measured values reported in paper PMC9518283 (Journal of Enzyme Inhibition and Medicinal Chemistry, 2022).

Tests used:
[1] = molecular target: human AChE (hAChE; EC 3.1.1.7) (Homo sapiens, UniProt P22303); assay: biochemical; conditions: for IC50: mean of at least three experiments, read-out: IC50 hAChE ± STD; for SI (hBChE/hAChE): ratio IC50(hBChE)/IC50(hAChE)
Method: (§1) For that purpose, Ellman’s colorimetric assay was used[35].
(§2) The catalytic activity of both cholinesterases was determined by standard Ellman’s method adapted for 96-well plates. All tested inhibitors were freshly prepared in 50% DMSO/50% methanol at 10 mM concentration as stock solutions and then diluted in 0.1 M phosphate buffer, pH 7.4. […] The mixture was pre-incubated at 37 °C for 15 min and subsequently substrate (acetylthiocholine iodide or butyrylthiocholine iodide) was added to the final concentration of 1000 μM. The final volume of the reaction was 100 μL. The catalytic activity was evaluated as the amount of product (%) formed by enzyme after 10 min of incubation at 37 °C. The IC50 values from three independent experiments for each inhibitor concentration in triplicate were calculated using non-linear regression curve analysis in Prism version 7 Software (GraphPad Software Inc., San Diego, CA).

[2] = molecular target: human butyrylcholinesterase (hBChE; EC 3.1.1.8) (Homo sapiens, UniProt P06276); assay: biochemical; conditions: mean of at least three experiments; read-out: IC50 hBChE ± STD
Sequence of human butyrylcholinesterase (hBChE; EC 3.1.1.8) (P06276 29-602): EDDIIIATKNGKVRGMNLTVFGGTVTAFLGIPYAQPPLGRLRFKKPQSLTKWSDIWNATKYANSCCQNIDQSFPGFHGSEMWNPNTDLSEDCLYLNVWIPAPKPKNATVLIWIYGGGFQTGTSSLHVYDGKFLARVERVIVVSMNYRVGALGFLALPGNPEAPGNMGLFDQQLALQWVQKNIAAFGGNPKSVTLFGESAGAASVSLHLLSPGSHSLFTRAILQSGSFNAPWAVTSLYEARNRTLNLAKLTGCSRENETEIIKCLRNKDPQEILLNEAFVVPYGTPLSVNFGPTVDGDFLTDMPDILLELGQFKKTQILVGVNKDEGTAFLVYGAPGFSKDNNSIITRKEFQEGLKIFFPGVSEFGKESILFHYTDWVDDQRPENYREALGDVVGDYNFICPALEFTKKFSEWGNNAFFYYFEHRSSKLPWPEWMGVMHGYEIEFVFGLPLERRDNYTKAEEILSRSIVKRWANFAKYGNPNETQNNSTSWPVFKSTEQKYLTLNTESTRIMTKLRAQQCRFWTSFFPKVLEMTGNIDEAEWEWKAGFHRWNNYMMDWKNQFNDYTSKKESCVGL
Method: as §1, §2

hMAO-A = molecular target: T1, hMAO-A (Homo sapiens, UniProt P21397); assay: hMAO-A inhibition, kynuramine substrate, HPLC-MS; format: biochemical; conditions: residual enzyme activity; for % of MAO-A activity (1 µM): compound at 1 µM; for % of MAO-A activity (10 µM): compound at 10 µM
T1 construct: purchased Sigma-Aldrich (St. Louis, MO, USA)
T1 sequence (P21397 1-527): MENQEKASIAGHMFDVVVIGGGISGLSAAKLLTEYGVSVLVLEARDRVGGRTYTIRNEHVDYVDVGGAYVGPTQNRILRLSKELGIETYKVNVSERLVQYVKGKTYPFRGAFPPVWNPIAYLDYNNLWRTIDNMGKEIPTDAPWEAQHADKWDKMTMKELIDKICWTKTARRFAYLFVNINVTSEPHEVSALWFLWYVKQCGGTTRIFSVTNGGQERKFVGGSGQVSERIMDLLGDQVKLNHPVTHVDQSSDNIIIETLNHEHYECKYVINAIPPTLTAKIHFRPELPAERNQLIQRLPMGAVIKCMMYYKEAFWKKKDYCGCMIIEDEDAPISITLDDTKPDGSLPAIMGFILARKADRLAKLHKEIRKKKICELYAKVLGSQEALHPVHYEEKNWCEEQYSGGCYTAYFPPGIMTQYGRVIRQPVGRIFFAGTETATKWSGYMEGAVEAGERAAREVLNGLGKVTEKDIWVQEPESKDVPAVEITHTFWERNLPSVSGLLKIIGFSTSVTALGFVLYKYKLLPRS
Method: (§3) The hMAO-A and hMAO-B enzymes were purchased from Sigma-Aldrich (St. Louis, MO, USA). […] The mixture was pre-incubated at 37 °C for 5 min and subsequently substrate kynuramine was added to the final concentration of 60 µM in the case of hMAO-A and 30 µM in the case of hMAO-B. The final volume of reaction mixture was 0.1 mL. The whole reaction mixture was incubated at 37 °C for 30 min. The reaction was stopped by the addition of 200 µL acetonitrile/methanol mixture (ratio 1:1) and cooling down to 0 °C. […] Eluents: (A) 0.1% formic acid in water; (B) 0.1% formic acid in acetonitrile.

hMAO-B = molecular target: T2, hMAO-B (Homo sapiens, UniProt P27338); assay: biochemical; conditions: residual enzyme activity; for % of MAO-B activity (1 µM): compound at 1 µM; for % of MAO-B activity (10 µM): compound at 10 µM
T2 construct: purchased Sigma-Aldrich (St. Louis, MO, USA)
T2 sequence (P27338 1-520): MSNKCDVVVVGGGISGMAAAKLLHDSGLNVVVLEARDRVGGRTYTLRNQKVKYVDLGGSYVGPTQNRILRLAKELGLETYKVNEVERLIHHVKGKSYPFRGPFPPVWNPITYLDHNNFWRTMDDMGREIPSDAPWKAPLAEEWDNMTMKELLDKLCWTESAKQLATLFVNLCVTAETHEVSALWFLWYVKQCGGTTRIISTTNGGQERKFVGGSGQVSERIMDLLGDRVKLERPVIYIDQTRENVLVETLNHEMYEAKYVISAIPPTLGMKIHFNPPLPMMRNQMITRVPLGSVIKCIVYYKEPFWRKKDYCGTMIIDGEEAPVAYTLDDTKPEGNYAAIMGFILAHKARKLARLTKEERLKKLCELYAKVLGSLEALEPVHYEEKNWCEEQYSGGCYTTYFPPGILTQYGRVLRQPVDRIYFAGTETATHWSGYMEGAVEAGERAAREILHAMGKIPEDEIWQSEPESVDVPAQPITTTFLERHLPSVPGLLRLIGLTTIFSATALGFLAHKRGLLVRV
Method: as §3

Sequence of human AChE (hAChE; EC 3.1.1.7) (P22303 32-614): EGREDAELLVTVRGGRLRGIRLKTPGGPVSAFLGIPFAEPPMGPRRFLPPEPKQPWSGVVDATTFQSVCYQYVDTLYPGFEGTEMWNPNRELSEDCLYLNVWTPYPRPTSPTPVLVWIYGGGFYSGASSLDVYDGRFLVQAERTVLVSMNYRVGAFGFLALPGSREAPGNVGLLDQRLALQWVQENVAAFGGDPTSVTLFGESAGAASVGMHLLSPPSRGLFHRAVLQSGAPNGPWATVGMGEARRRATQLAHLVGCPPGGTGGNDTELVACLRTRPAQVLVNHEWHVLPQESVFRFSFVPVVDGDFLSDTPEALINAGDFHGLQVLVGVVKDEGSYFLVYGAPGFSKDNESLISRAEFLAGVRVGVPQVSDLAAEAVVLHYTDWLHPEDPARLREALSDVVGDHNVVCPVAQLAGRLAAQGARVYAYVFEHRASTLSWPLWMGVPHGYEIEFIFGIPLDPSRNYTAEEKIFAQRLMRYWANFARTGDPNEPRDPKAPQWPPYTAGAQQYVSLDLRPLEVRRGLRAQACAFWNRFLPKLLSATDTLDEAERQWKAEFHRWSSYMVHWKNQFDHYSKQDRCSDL

SMILES	IC50 [1]	SI (hBChE/hAChE) [1]	IC50 [2]	% of MAO-A activity (1 µM) (hMAO-A)	% of MAO-A activity (10 µM) (hMAO-A)	% of MAO-B activity (1 µM) (hMAO-B)	% of MAO-B activity (10 µM) (hMAO-B)
C=CCN(CC=C)c1c2c(nc3ccccc13)CCCC2.Cl [Compound 1, N,N-Di(prop-2-en-1-yl)-1,2,3,4-tetrahydroacridin-9-amine hydrochloride]	0.493 ± 0.012 µM	1.45	0.716 ± 0.035 µM	95%	85%	89%	62%
C=CCNc1c2c(nc3ccccc13)CCCC2.Cl [Compound 2, N-(prop-2-en-1-yl)-1,2,3,4-tetrahydroacridin-9-amine hydrochloride]	0.303 ± 0.004 µM	1.61	0.488 ± 0.019 µM	78%	58%	48%	72%
C=CCNc1c2c(nc3cc(Cl)ccc13)CCCC2.Cl [Compound 3, 6-Chloro-N-(prop-2-en-1-yl)-1,2,3,4-tetrahydroacridin-9-amine hydrochloride]	0.07 ± 0.001 µM		3.22 ± 0.129 µM	76%	73%	71%	64%
C=CCN(CC=C)c1c2c(nc3ccc(OC)cc13)CCCC2.Cl [Compound 4, 7-Methoxy-N,N-di(prop-2-en-1-yl)-1,2,3,4-tetrahydroacridin-9-amine hydrochloride]	3.69 ± 0.113 µM	2.37	8.76 ± 0.292 µM	103%	107%	83%	61%
C=CCNc1c2c(nc3ccc(OC)cc13)CCCC2.Cl [Compound 5, 7-Methoxy-N-(prop-2-en-1-yl)-1,2,3,4-tetrahydroacridin-9-amine hydrochloride]	2.27 ± 0.062 µM	5.52	12.5 ± 0.387 µM	97%	62%	82%	70%
C=CCN(CC=C)c1c2c(nc3ccc(Oc4ccccc4)cc13)CCCC2.Cl [Compound 6, 7-Phenoxy-N,N-di(prop-2-en-1-yl)-1,2,3,4-tetrahydroacridin-9-amine hydrochloride]	9.54 ± 0.138 µM	1.38	13.2 ± 0.408 µM	76%	78%	16%	4%
C#CCN(CC#C)c1c2c(nc3ccccc13)CCCC2.Cl [Compound 8, N,N-Di(prop-2-yn-1-yl)-1,2,3,4-tetrahydroacridin-9-amine hydrochloride]	0.186 ± 0.005 µM	5.04	0.937 ± 0.043 µM	103%	111%	59%	47%
C#CCN(CC#C)c1c2c(nc3cc(Cl)ccc13)CCCC2 [Compound 10]	0.105 ± 0.004 µM	103.52	10.9 ± 1.02 µM	92%	92%	106%	141%
C#CCN(CC#C)c1c2c(nc3ccc(OC)cc13)CCCC2.Cl [Compound 12, 7-Methoxy-N,N-di(prop-2-yn-1-yl)-1,2,3,4-tetrahydroacridin-9-amine hydrochloride]	5.12 ± 0.184 µM	1.56	7.97 ± 0.3 µM	123%	114%	63%	45%
C#CCNc1ccnc2cc(Cl)ccc12.Cl [Compound 28, 7-Chloro-N-(prop-2-yn-1-yl)quinolin-4-amine hydrochloride]	8.71 ± 0.242 µM			39%	31%	150%	61%
